# Reference: patent US20110257146A1, “Method of Treating Kcnq Related Disorders Using Organozinc Compounds” (The johns Hopkins University, priority 2006, published 2011)
# Tests used:
# KCNQ2 L275A = target: T1, KCNQ2 L275A (Rattus norvegicus, UniProt O88943, L275A); test: Whole-cell recording of KCNQ2 L275A mutant; assay type: cell-based
# T1 construct: expressed in transfected cells
# From the text: (§1) FIG. 9. KCNQ2 point mutants selectively lose ZnPy sensitivity. […] Each mutation site was indicated based on the predicted transmembrane regions. Dashed line indicates the potentiation level of wt KCNQ2 channel in the absence of ZnPy. […] C. Modeling of the S5-pore-S6 region of KCNQ2.
# (§2) Mutagenesis—Starting from KCNQ cDNAs, the KCNQ2 point mutants were constructed by recombinant PCR and verified by sequencing.
# (§3) Electrophysiological Recording—Standard whole-cell recording was used. Pipettes were pulled from borosilicate glass capillaries (TW150-4, World Precision Instruments, Sarasota, Fla.). When filled with the intracellular solution, the pipettes have resistances of […]. During the recording, constant perfusion of extracellular solution was maintained using a BPS perfusion system (ALA, Westbury, N.Y.). Pipette solution contained (mM): KCl 145, MgCl2 1, EGTA 5, HEPES 10, MgATP 5 (pH 7.3); extracellular solution contained (mM): NaCl 140, KCl 3, CaCl2 2, MgCl2 1.5, HEPES 10, glucose 10 (pH 7.4). Current and voltage were recorded using an Axopatch-200A amplifier, filtered at 1 kHz and digitized using a DigiData 1322A with pClamp 9.2 software (Axon Instruments, Foster City, Calif.). Series resistance compensation was also used and set to 60-80%.
# KCNQ4 = target: T2, KCNQ4 (Homo sapiens, UniProt P56696); test: Whole-cell voltage clamp of CHO cells expressing KCNQ4; assay type: cell-based; settings: 10 μM ZnPy, extracellular
# T2 construct: expressed in transfected cells; host or cells: CHO cells
# Protocol: Cell culture and transient transfection—Chinese Hamster Ovary (CHO) cells were grown in 50/50 DMEM/F12 (Cellgro) with 10% FBS (Gibco), 100 U/ml penicillin (Cellgro), 100 μg/ml streptomycin (Cellgro) and 2 mM L-glutamine (Gibco). At 24 hours before transfection, cells were split and plated in 60 mm dishes and were transfected with Lipofectamine2000™ reagent (Invitrogen) according to the manufacturer's instruction. At 24 hours after transfection, cells were split and re-plated onto coverslips coated with poly-L-lysine (Sigma). Plasmid expressing CD4 cDNA as a marker was cotransfected with the channel cDNAs of hKCNQ1 (from Dr. Michael Sanguinetti), hKCNQ4 (from Dr. Vitya Vardanyan), rKCNQ2, rKCNQ3, and hKCNQ5 (from Drs. David McKinnon, Mark Shapiro, and Thomas Jentsch). Prior to recording, anti-CD4 Dynabeads (Dynal. Biotech. Inc.) were added into the medium to allow for identification of the transfected cells. Stable lines expressing Kv2.1, hERG, and Kv4.2 were generated by standard protocols using pcDNA3.1 and maintained at complete medium supplemented with 500 μg/ml G418. […]
# Electrophysiological Recording—Standard whole-cell recording was used. […] Current and voltage were recorded using an Axopatch-200A amplifier, filtered at 1 kHz and digitized using a DigiData 1322A with pClamp 9.2 software (Axon Instruments, Foster City, Calif.). […]
# KCNQ2/3 heteromultimers = target: T3, KCNQ2/3 heteromultimers (Rattus norvegicus, UniProt O88943+O88944); test: Whole-cell voltage clamp of CHO cells expressing KCNQ2/3 heteromultimers; assay type: cell-based
# T3 construct: expressed in transfected cells
# Protocol: Cell culture and transient transfection—Chinese Hamster Ovary (CHO) cells were grown in 50/50 DMEM/F12 (Cellgro) with 10% FBS (Gibco), 100 U/ml penicillin (Cellgro), 100 μg/ml streptomycin (Cellgro) and 2 mM L-glutamine (Gibco). At 24 hours before transfection, cells were split and plated in 60 mm dishes and were transfected with Lipofectamine2000™ reagent (Invitrogen) according to the manufacturer's instruction. At 24 hours after transfection, cells were split and re-plated onto coverslips coated with poly-L-lysine (Sigma). Plasmid expressing CD4 cDNA as a marker was cotransfected with the channel cDNAs of hKCNQ1 (from Dr. Michael Sanguinetti), hKCNQ4 (from Dr. Vitya Vardanyan), rKCNQ2, rKCNQ3, and hKCNQ5 (from Drs. David McKinnon, Mark Shapiro, and Thomas Jentsch). Prior to recording, anti-CD4 Dynabeads (Dynal. Biotech. Inc.) were added into the medium to allow for identification of the transfected cells. Stable lines expressing Kv2.1, hERG, and Kv4.2 were generated by standard protocols using pcDNA3.1 and maintained at complete medium supplemented with 500 μg/ml G418. The N-type calcium channel stable line was a kind gift from Drs. Diane Lipscombe and David Yue.
# as §3
# Data and Statistical Analysis—Patch-clamp data were preprocessed using Clampfit 9.2 (Axon Instruments, Foster City, Calif.) and then analyzed in Origin 7 (OriginLab, Northampton, Mass.). The activation curve was fitted by the Boltzmann equation: G=(Gmax−Gmin)/[1+exp[(V−V1/2)/S]]+Gmin, where Gmax is the maximum conductance, Gmin is the minimum conductance, V1/2 is the voltage for half of the total numbers of channels to open, and S is the slope factor. The dose response curve was fitted by the Hill equation: E=Emax/(1+(EC50/C)^P), where Emax is the maximum response, C is the drug concentration, EC50 is the drug concentration producing half of the maximum response, and P is the Hill coefficient. The deactivation trace was fitted by the standard exponential equation: I(t)=ΣIi*exp(−t/τi), where I is the current, t is the time and τ is the time constant. Data are presented as means±SE. Significance was estimated using paired two-tailed Student's t-test.
# KCNQ2(A306T) = target: T4, KCNQ2(A306T) (Rattus norvegicus, UniProt O88943, A306T); test: Whole-cell recording of KCNQ2(A306T) mutant in CHO cells; assay type: cell-based
# T4 construct: expressed in transfected cells; host or cells: CHO cells
# Protocol: as §1
# FIG. 11. ZnPy effects on BFNC mutant channels expressed in CHO cells. A. whole-cell currents of KCNQ2(R207W), KCNQ2(Y284C), and KCNQ2(A306T) were recorded in the absence (left) and presence (right) of 10 μM ZnPy, Vh was −80 mV, in 10 mV voltage steps from −70 mV to +50 mV. B. a histogram plotting potentiation effects on KCNQ2 wild type (wt) and BFNC mutants (R207W, Y284C and […]) by ZnPy (filled box) and retigabine (open box) (n≧4, * p<0.001, ** p<0.05).
# as §2, §3
# hippocampal neurons = test: Membrane potential and elicited action potentials of isolated hippocampal neurons; assay type: cell-based, rat; settings: 10 μM ZnPy
# Protocol: FIG. 10. ZnPy potentiation of native M-current. A. M current recorded from an isolated rat dorsal root ganglion neuron, Vh was −60 mV, stepped to −20 mV, followed by a step to −50 mV, and stepped back to −20 mV. B. Histograms show M-current amplitudes in the presence and absence of 10 μM ZnPy (n=10, * p<0.001). M-current amplitudes were measured by fitting the IM relaxation with an exponential equation. The recording bath solution includes 1 μM TTX, 0.2 mM TEA, 1 mM 4-AP, 50 μM CNQX, and 10 μM bicuculline. C. Membrane potential of an isolated hippocampal neuron was monitored when 10 μM ZnPy was applied in bath solution followed by the addition of 15 μM linopirdine. D. Action potentials elicited by 200 pA current injection to a patched hippocampal neuron. The ZnPy treatments are as indicated.
# Neuron Culture—Dorsal root ganglia (DRG) was collected from fourteen-day-old CD rat and incubated in collagenase (sigma, 500 U/ml, 15 min) and then trypsin (Sigma, 1 mg/ml, 30 min) at 37° C. Single DRG neurons were isolated by mechanical trituration with a fire-polished glass Pasteur pipette. Hippocampal tissue was dissected out from CD rat postnatal day 0. The tissue was digested with papain (Worthington Biochem, 20 U/ml, 30 min) and resuspended into single cells. The single-cell suspension was plated onto a monolayer of glial cells that were growing on coated cover slips. Cytosine-1-D-arabinofuranoside at 5 μM was added into the culture medium 24-48 hours later to arrest glial cell proliferation. The culture medium consisted of Neurobasal™ medium with B-27 supplement (Gibco), penicillin/streptomycin and 2 mM L-glutamine. All cells were maintained at 37° C. with 5% CO2 prior to recording.
# Electrophysiological Recording—Standard whole-cell recording was used. Pipettes were pulled from borosilicate glass capillaries (TW150-4, World Precision Instruments, Sarasota, Fla.). […] Current and voltage were recorded using an Axopatch-200A amplifier, filtered at 1 kHz and digitized using a DigiData 1322A with pClamp 9.2 software (Axon Instruments, Foster City, Calif.). […]
# [1] = Mouse model of severe focal ischemia; settings: in vivo
smiles,measurement,setting,value
"S=c1ccccn1[O][Zn][O]n1ccccc1=S [ZnPy, Zinc Pyrithione]",change in V1/2 caused by ZnPy,KCNQ2 L275A,significant reduction on changes in V1/2
same,effect on channel activity,KCNQ4,potentiated
same,hyperpolarizing shift of V1/2,KCNQ2/3 heteromultimers; 10 μM ZnPy,24.4±0.8 mV
same,V1/2 in presence of compound,"KCNQ2/3 heteromultimers; 10 μM ZnPy, control −20.3±0.8 mV",−44.7±1.9 mV
same,activation time constant,"KCNQ2/3 heteromultimers; +50 mV, with ZnPy, control 75.6±4.9",157.8±23.5 milliseconds
same,Hill coefficient of dose dependent curve,KCNQ2/3 heteromultimers; KCNQ2/3,1.4
same,EC50,"KCNQ2/3 heteromultimers; KCNQ2/3 heteromultimers, read-out: EC50 of midpoint of activation voltage (V1/2) shift",2.4 ± 0.4 µM
same,deactivation time constant,"KCNQ2/3 heteromultimers; −120 mV, 10 μM ZnPy, control 12.4±0.7",41.9±6.4 milliseconds
same,effectiveness of current increase,KCNQ2(A306T); 10 μM ZnPy,less effective
same,hyperpolarizing shift of V1/2,KCNQ2(A306T); ZnPy,24.1±3.1 mV
same,potentiation in Gmax,KCNQ2(A306T); ZnPy,little potentiation in Gmax
same,effect on membrane potential,hippocampal neurons,noticeable hyperpolarization of membrane potential
same,effect on repetitive firing elicited by current injection,hippocampal neurons; 200 pA current injection,immediately abolished the repetitive firing
same,neuroprotection,[1],significantly decreasing brain infarct volume and neurological deficit
